In assay [1] the target is T1, nuclease P1 (Penicillium citrinum, UniProt P24289).
T1 sequence (P24289 1-270): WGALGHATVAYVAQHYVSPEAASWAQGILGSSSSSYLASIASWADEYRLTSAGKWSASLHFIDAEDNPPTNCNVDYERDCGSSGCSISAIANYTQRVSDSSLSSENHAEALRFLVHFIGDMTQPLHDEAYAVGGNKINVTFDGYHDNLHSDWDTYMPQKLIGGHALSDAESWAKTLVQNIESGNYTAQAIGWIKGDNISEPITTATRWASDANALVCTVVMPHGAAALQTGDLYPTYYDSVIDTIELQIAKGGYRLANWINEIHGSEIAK
In words: Endonuclease (nuclease P1) turnover rate for hydrolysis of modified dinucleoside monophosphates. Type of assay: biochemical. The settings on record: 6 nmol substrate in 100 μl 60 mM sodium acetate buffer pH 5.3 with zinc chloride, 50 ng nuclease P1, 37° C., HPLC analysis. The method, then: The endonuclease turnover rate was measured in terms of the number of substrate molecules hydrolyzed per minute per molecule of enzyme. The substrates were modified dinucleoside monophosphates comprising the DNA base modifications illustrated in FIG. 1. The respective unmodified dinucleoside monophosphates were purchased commercially, with the exceptions of d(GpG), d(GpC), d(GpA), and d(GpT) which were prepared using methods previously described (Paul et al., 1988, Int. J. Radiat. Biol. 54:403-415). A solution of each the unmodified dinucleoside monophosphates was X-irradiated, and the corresponding modified dinucleoside monophosphate was isolated by reverse-phase HPLC (see, e.g., Schroder et al., 1995, Int. J. Radiat. Biol. 68:509-23; and Box et al., 1995, In Radiation Damage in DNA, eds. Fuciarelli and Zimbrick, publs. Battelle Press). The one exception to producing modified dinucleoside monophosphates was the production of the DNA base modification thymine glycol. Modified dinucleoside monophosphates bearing the thymine glycol modification were prepared by treating dTpA with osmium tetroxide (see, e.g., Belfi et al., 1986, supra). The DNA base modifications were identified using proton nuclear magnetic resonance spectroscopy (see, e.g., Schroder et al., 1995, Int. J. Radiat. Biol. 68:509-23).
Concentrations of the modified dinucleoside monophosphates were determined spectrophotometrically at 260 nm. The rates of hydrolysis for the modified dinucleoside monophosphates by endonuclease were obtained from measurements of equimolar amounts of the substrate modified dinucleoside monophosphate (6 nmol) in 100 μl of 60 mM sodium acetate buffer (pH 5.3, containing […] zinc chloride). Hydrolysis was initiated by the addition of the endonuclease (50 ng of nuclease P1 in 2 μl buffer) and the reactants were incubated in a 37° C. water bath. At varying times, hydrolysis was terminated by the addition of 15 μl of 1M Tris, and rapid freezing in a liquid nitrogen bath. The products of digestion were analyzed by injecting the digest onto a C-18 reverse phase HPLC column, with elution using a 5%-53% linear gradient of CH3 CN/0.1M ammonium acetate buffer, pH 7.0 at a 1.0 ml/minute flow rate. Moles of protein were calculated from the weight of the material and the known molecular weights for the constituents. The results of the measurement of the endonuclease turnover rates (R, as measured in terms of molecules hydrolyzed per minute per molecule of enzyme) for each of the modified dinucleoside monophosphates tested is illustrated in Table 1.

Assay [2] addresses T1, nuclease P1. The settings on record: endonucleases such as nuclease P1; Maccubbin et al., 1993; cited from earlier work.

The values below come from patent publication US5906918A, “Compositions and methods for measurement of oxidative DNA damage” (Health Research Inc., priority 1997, dated 1999).

In the case of `Nc1ncnc2c1ncn2[C@H]1C[C@H](O)[C@@H](COP(=O)(O)O[C@H]2C[C@H](NC=O)O[C@@H]2CO)O1` [d(T*pA) formamido remnant], at nuclease P1 [1], the “endonuclease turnover rate R” value is “no hydrolysis detected”. In addition, the “hydrolysis by endonuclease of the phosphoester bond 3' to the modified nucleoside” value at nuclease P1 [2] was “do not hydrolyze”.

On to `Nc1ccn([C@H]2C[C@H](O)[C@@H](COP(=O)(O)O[C@H]3C[C@H](NC=O)O[C@@H]3CO)O2)c(=O)n1` [d(T*pC) formamido remnant], for which the “endonuclease turnover rate R” value at nuclease P1 [1] is listed as “no hydrolysis detected”.

Regarding `Nc1nc2c(ncn2[C@H]2C[C@H](O)[C@@H](COP(=O)(O)O[C@H]3C[C@H](NC=O)O[C@@H]3CO)O2)c(=O)[nH]1` [d(T*pG) formamido remnant], the “endonuclease turnover rate R” value at nuclease P1 [1] is “no hydrolysis detected”.

As to `Cc1cn([C@H]2C[C@H](O)[C@@H](COP(=O)(O)O[C@H]3C[C@H](NC=O)O[C@@H]3CO)O2)c(=O)[nH]c1=O` [d(T*pT) formamido remnant], the “endonuclease turnover rate R” value on nuclease P1 [1] was “no hydrolysis detected”.
